The results in this text go back to patent US20170015696A1, “SOLID STATE FORMS OF SOFOSBUVIR” (RATIOPHARM GMBH, priority 2014, published 2017).

A short description of the data set: Storage stability of the solid state form at ambient conditions. The format is physicochemical. The note with it: stored at ambient conditions (e.g., 1 atmosphere at RT). From the text:
Form A has certain advantageous properties as discussed above. Particularly, form A is stable for a period of 16 months when stored at ambient conditions (e.g., 1 atmosphere at RT).

For the compound `CC(C)OC(=O)[C@H](C)N[P@](=O)(OC[C@H]1O[C@@H](n2ccc(=O)[nH]c2=O)[C@](C)(F)[C@@H]1O)Oc1ccccc1` [form A, Sofosbuvir], the “period for which the form is stable when stored” value was 16 months.
